The values below come from ChEMBL document CHEMBL1671678, “Probing the antimalarial mechanism of artemisinin and OZ277 (arterolane) with nonperoxidic isosteres and nitroxyl radicals” (Antimicrob Agents Chemother, 2010).

The subject of experiment [1] is Plasmodium falciparum. As to the kind of experiment: Antimalarial activity against Plasmodium falciparum K1 by [3H]hypoxanthine incorporation assay. The format is functional, organism-based.
Experiment [2] concerns Plasmodium falciparum. As to the kind of experiment: Antimalarial activity against Plasmodium falciparum NF54 by [3H]hypoxanthine incorporation assay. The format is functional, organism-based.
In experiment [3] the test system is Plasmodium falciparum. Put plainly: Antimalarial activity against Plasmodium falciparum NF54 by [3H]hypoxanthine incorporation assay in presence of 2,2,6,6,-tetramethyl-1-piperidinyloxy. The class given is functional.
In experiment [4] the test system is Plasmodium falciparum. As to the kind of experiment: Antimalarial activity against Plasmodium falciparum NF54 by [3H]hypoxanthine incorporation assay in presence 3:1 ratio of compound to carbaOZ277. The format is functional.
Experiment [5] relates to Plasmodium falciparum. Put plainly: Antimalarial activity against Plasmodium falciparum NF54 by [3H]hypoxanthine incorporation assay in presence 1:1 ratio of compound to carbaOZ277. The class given is functional.
Experiment [6] relates to Plasmodium falciparum. Put plainly: Antimalarial activity against Plasmodium falciparum NF54 by [3H]hypoxanthine incorporation assay in presence of 1:1 ratio of compound to 4-carboxy-2,2,6,6,-tetramethyl-1-piperidinyloxy. The class given is functional.
Experiment [7] relates to Plasmodium falciparum. Put plainly: Antimalarial activity against Plasmodium falciparum NF54 by [3H]hypoxanthine incorporation assay in presence of 1:3 ratio of compound to 4-oxo-2,2,6,6,-tetramethyl-1-piperidinyloxy. The format is functional.
For experiment [8], the system named is Plasmodium falciparum. Put plainly: Antimalarial activity against Plasmodium falciparum NF54 by [3H]hypoxanthine incorporation assay in presence of 1:3 ratio of compound to 4-hydroxy-2,2,6,6,-tetramethyl-1-piperidinyloxy. The class given is functional.
The subject of experiment [9] is Plasmodium falciparum. As to the kind of experiment: Antimalarial activity against Plasmodium falciparum NF54 by [3H]hypoxanthine incorporation assay in presence of 3:1 ratio of compound to 2,2,6,6,-tetramethyl-1-piperidinyloxy. The class given is functional.
For experiment [10], the system named is Plasmodium falciparum. Put plainly: Antimalarial activity against Plasmodium falciparum NF54 by [3H]hypoxanthine incorporation assay in presence of carbaOZ277. The class given is functional.
The subject of experiment [11] is Plasmodium falciparum. Put plainly: Antimalarial activity against Plasmodium falciparum NF54 by [3H]hypoxanthine incorporation assay in presence of 1:1 ratio of compound to 2,2,6,6,-tetramethyl-1-piperidinyloxy. The format is functional.
Experiment [12] deals with Plasmodium falciparum. Put plainly: Antimalarial activity against Plasmodium falciparum NF54 by [3H]hypoxanthine incorporation assay in presence 3:1 ratio of compound to deoxyartemisinin. The class given is functional.
In experiment [13] the test system is Plasmodium falciparum. Put plainly: Antimalarial activity against Plasmodium falciparum NF54 by [3H]hypoxanthine incorporation assay in presence 1:3 ratio of compound to deoxyartemisinin. The format is functional.
Experiment [14] relates to Plasmodium falciparum. As to the kind of experiment: Antimalarial activity against Plasmodium falciparum NF54 by [3H]hypoxanthine incorporation assay in presence of 4-carboxy-2,2,6,6,-tetramethyl-1-piperidinyloxy. The format is functional.
Experiment [15] has as its system Plasmodium falciparum. Put plainly: Antimalarial activity against Plasmodium falciparum NF54 by [3H]hypoxanthine incorporation assay in presence of 3:1 ratio of compound to 4-hydroxy-2,2,6,6,-tetramethyl-1-piperidinyloxy. The class given is functional.
The subject of experiment [16] is Plasmodium falciparum. Put plainly: Antimalarial activity against Plasmodium falciparum NF54 by [3H]hypoxanthine incorporation assay in presence of 1:3 ratio of compound to 4-carboxy-2,2,6,6,-tetramethyl-1-piperidinyloxy. The format is functional.
Experiment [17] concerns Plasmodium falciparum. Put plainly: Antimalarial activity against Plasmodium falciparum NF54 by [3H]hypoxanthine incorporation assay in presence of 3:1 ratio of compound to 4-amino-2,2,6,6,-tetramethyl-1-piperidinyloxy. The class given is functional.
In experiment [18] the test system is Plasmodium falciparum. As to the kind of experiment: Antimalarial activity against Plasmodium falciparum NF54 by [3H]hypoxanthine incorporation assay in presence of 3:1 ratio of compound to 4-carboxy-2,2,6,6,-tetramethyl-1-piperidinyloxy. The class given is functional.
Experiment [19] relates to Plasmodium falciparum. Put plainly: Antimalarial activity against Plasmodium falciparum NF54 by [3H]hypoxanthine incorporation assay in presence 1:1 ratio of compound to deoxyartemisinin. The class given is functional.
Experiment [20] has as its system Plasmodium falciparum. Put plainly: Antimalarial activity against Plasmodium falciparum NF54 by [3H]hypoxanthine incorporation assay in presence of 1:3 ratio of compound to 2,2,6,6,-tetramethyl-1-piperidinyloxy. The class given is functional.
Experiment [21] has as its system Plasmodium falciparum. Put plainly: Antimalarial activity against Plasmodium falciparum NF54 by [3H]hypoxanthine incorporation assay in presence of 1:3 ratio of compound to 4-amino-2,2,6,6,-tetramethyl-1-piperidinyloxy. The format is functional.
Experiment [22] has as its system Plasmodium falciparum. Put plainly: Antimalarial activity against Plasmodium falciparum NF54 by [3H]hypoxanthine incorporation assay in presence of 1:1 ratio of compound to 4-oxo-2,2,6,6,-tetramethyl-1-piperidinyloxy. The class given is functional.
The subject of experiment [23] is Plasmodium falciparum. As to the kind of experiment: Antimalarial activity against Plasmodium falciparum NF54 by [3H]hypoxanthine incorporation assay in presence of 4-oxo-2,2,6,6,-tetramethyl-1-piperidinyloxy. The class given is functional.
Experiment [24] concerns Plasmodium falciparum. Put plainly: Antimalarial activity against Plasmodium falciparum NF54 by [3H]hypoxanthine incorporation assay in presence of deoxyartemisinin. The format is functional.
The subject of experiment [25] is Plasmodium falciparum. Put plainly: Antimalarial activity against Plasmodium falciparum NF54 by [3H]hypoxanthine incorporation assay in presence of 4-hydroxy-2,2,6,6,-tetramethyl-1-piperidinyloxy. The format is functional.
Experiment [26] has as its system Plasmodium falciparum. As to the kind of experiment: Antimalarial activity against Plasmodium falciparum NF54 by [3H]hypoxanthine incorporation assay in presence of 3:1 ratio of compound to 4-oxo-2,2,6,6,-tetramethyl-1-piperidinyloxy. The format is functional.
Experiment [27] has as its system Plasmodium falciparum. Put plainly: Antimalarial activity against Plasmodium falciparum NF54 by [3H]hypoxanthine incorporation assay in presence of 4-amino-2,2,6,6,-tetramethyl-1-piperidinyloxy. The format is functional.
Experiment [28] deals with Plasmodium falciparum. As to the kind of experiment: Antimalarial activity against Plasmodium falciparum NF54 by [3H]hypoxanthine incorporation assay in presence 1:3 ratio of compound to carbaOZ277. The class given is functional.
Experiment [29] relates to Plasmodium falciparum. Put plainly: Antimalarial activity against Plasmodium falciparum NF54 by [3H]hypoxanthine incorporation assay in presence of 1:1 ratio of compound to 4-amino-2,2,6,6,-tetramethyl-1-piperidinyloxy. The class given is functional.
The test system of experiment [30] is Plasmodium falciparum. As to the kind of experiment: Antimalarial activity against Plasmodium falciparum NF54 by [3H]hypoxanthine incorporation assay in presence of 1:1 ratio of compound to 4-hydroxy-2,2,6,6,-tetramethyl-1-piperidinyloxy. The format is functional.
The mark [31] stands for this setting: Plasmodium falciparum, K1, read-out: IC50.

In brackets after ≈: the same amount, converted by molar mass.

As a reminder, the IC50 is the concentration at which inhibition is half-maximal. Regarding `CC1(C)CC(C(=O)O)CC(C)(C)N1[O]`, the IC50 amounted to 0.00057 µg/mL (≈ 0.00285 µM) in experiment [1] and 0.00054 µg/mL (≈ 0.0027 µM) in experiment [2].

For `CC(C)(N)CNC(=O)CC1CC[C@]2(CC1)OC[C@]1(O2)C2CC3CC(C2)CC1C3` (stereo partly drawn), the IC50 in experiment [1] (setting [31]) was 12 µg/mL (≈ 30.7 µM).

As to `CC1(C)CC(=O)CC(C)(C)N1[O]`, the 50% inhibitory concentration (IC50) in experiment [1] (setting [31]) came to 2.2 µg/mL (≈ 12.9 µM).

Regarding `C[C@@H]1CC[C@H]2[C@@H](C)C(=O)O[C@@H]3O[C@@]4(C)CC[C@@H]1[C@]32OO4` [ARTEMISININ], the FIC50 in experiment [3] is given as 1.9; in [4], 1.1; in experiment [5], 1.1; in [6] it was 1.4; in [7], 2.3; in experiment [8] it was 1.8. Besides, the FIC50 in experiment [9] was 2.2; in [10] it was 1.1; in experiment [11], 2.1; in [12], 1; in [13], 1.2; in [14], 1.3. The FIC50 in [15] came to 2.5; in experiment [16], 1.4; in experiment [17], 2.8; in [18], 1.2; in [19], 1.1; in experiment [20], 1.3. Further, the FIC50 in experiment [21] worked out at 1.3; in experiment [22] it was 2.6; in experiment [23] it was 2.3; in experiment [24] it was 1.1; in experiment [25], 2.8; in experiment [26], 2. Moreover, the FIC50 in experiment [27] came out at 2; in experiment [28], 1.1; in experiment [29] it was 1.9; in experiment [30] it was 4.

Turning to `C[C@@H]1CC[C@H]2[C@@H](C)C(=O)O[C@@H]3O[C@@]4(C)CC[C@@H]1[C@]32O4` [DEOXYARTEMISININ], the IC50 in [1] (setting [31]) stood at 34 µg/mL (≈ 128 µM).

On to `CC(C)(N)CNC(=O)C[C@H]1CC[C@]2(CC1)OO[C@]1(O2)C2CC3CC(C2)CC1C3` [OZ277], for which the FIC50 is 1.5 in experiment [3]; 1.1 in [4]; 1.2 in [5]; 1.3 in experiment [6]; 1.4 in experiment [7]; 1.5 in [8]. The FIC50 in experiment [9] is recorded as 1.2; in experiment [10] it was 1.3; in experiment [11] it was 1.5; in [12] it was 1.2; in [13], 1.4; in experiment [14], 1.3. The FIC50 in experiment [15] was 1.2; in experiment [16], 1.3; in experiment [17], 1.7; in [18], 1.2; in experiment [19] it was 1.3; in [20], 1.8. Besides, the FIC50 in [21] is 2.3; in experiment [22] it was 1.3; in [23] it was 1.3; in experiment [24] it was 1.2; in experiment [25], 1.3; in experiment [26] it was 1.1. Besides, the FIC50 stood at 2.1 in [27], 1.2 in [28], 2.4 in experiment [29] and 1.3 in [30].

As for `CC1(C)CC(N)CC(C)(C)N1[O]` [TEMPAMINE], the IC50 in experiment [1] (setting [31]) was 16 µg/mL (≈ 93.4 µM).

Take `CC1(C)CC(O)CC(C)(C)N1[O]` [TEMPOL]: the half-maximal inhibitory concentration (IC50) in experiment [1] (setting [31]) was determined as 19 µg/mL (≈ 110 µM).
